Article PMC11601558, “SLC6A19 inhibition facilitates urinary neutral amino acid excretion and lowers plasma phenylalanine” (JCI Insight, 2024)

Key:
[1] = system: Pah^enu2 mice; assay: Plasma Phe in Pah^enu2 mice after JN-170; type: in vivo, mouse
Experimental: Male homozygous BTBR-Pah<enu2>/J (Pah^enu2) aged 10–13 weeks were purchased from Jackson Laboratory (no. 002232). Immediately before dosing, each animal’s bladder was manually emptied and a plasma sample was drawn. Animals were dosed by oral gavage with vehicle (10% DMSO, 20% 2-hydroxypropyl-β-cyclodextrin [Sigma-Aldrich]) followed by a 1-week washout prior to dosing with JN-170 at doses ranging from 50 to 250 mg/kg. Following dosing with vehicle or JN-170, animals were individually placed in metabolic cages to collect urine samples. After collection of each urine sample, cages were rinsed with ultra-pure water to recover residual analytes. Blood samples were collected predose as well as 1, 3, 8, 12, and 24 hours after dosing with vehicle or JN-170 into tubes with EDTA as a […], and plasma was separated by centrifuging samples at 2,200g for 5 minutes at 4°C. Throughout the study, mice had access to food and water ad libitum. Plasma and urine samples were stored at –80°C until processing.Ten-week-old male WT C57Bl/6J animals (Si Bei Fu Laboratory Animal Technology Co. Ltd.) were dosed either with vehicle or 50–250 mg/kg JN-170 by oral gavage and blood and urine samples were collected as described. All animals had unrestricted access to food and water during the study; C57Bl/6J were kept on rodent maintenance diet from Beijing Keao Xieli, Pah^enu2 mice were kept on Teklad diet no. T.2018.
Plasma sample analyses were carried out by liquid chromatography tandem mass spectrometry (LC-MS/MS). Plasma samples were mixed 1:1 with carbamazepine or ^13C6-Phe as internal standards for JN-170 and Phe, respectively. Plasma proteins were precipitated by adding 4 volumes of acetonitrile (ACN) and 0.1% formic acid (FA) followed by centrifugation for 5 minutes at 2,100g. Supernatants were diluted 1:1 in ACN and 0.1% FA. For JN-170, a Waters HSS T3 reversed phase column was used for separation using a binary gradient of 0.1% FA in water (mobile phase A) to 0.1% in ACN (mobile phase B). At a flow rate of 0.8 mL/min, the mobile phase gradient increased from an initial 25% phase B to 95% phase B over 30 seconds. After, 1.5 minutes, the gradient was returned to 25% mobile phase B. For detection of Phe, an Acquity UPLC ethylene bridged hybrid (BEH) amide column was used, with a binary gradient of 10 mM ammonium acetate in 95:5:1 H2O:ACN:FA (mobile phase A) to 10 mM ammonium acetate in 95:5:1 ACN:H2O:FA (mobile phase B). At a flow rate of 0.5 mL/min, the mobile phase gradient changed from an initial 100% phase B to 50% phase B over 2.1 minutes. It was returned to 100% phase B after 4 minutes. Analytes were detected using a Sciex API-5500 in multiple reaction monitoring mode using an electrospray ionization source in the positive ion mode with the following ion transitions: m/z 435.2/84.1 (JN-170), 237.1/194.1 (carbamazepine), 166.1/120.1 (Phe), 172.2/126.2 for (^13C6-Phe). Analyte concentrations were calculated with a 1/×^2 linear regression over a concentration range of 1 or 2 to 5,000 ng/mL for JN-170 and 0.05–100 ng/mL for Phe.
IC50 values for transport inhibition in cells overexpressing SLC6A19 and TMEM27 were calculated using a 4-parameter logistic regression in Collaborative Drug Discovery (CDD). Reported IC50 values are geometric means of 4–6 independent experiments. For postmortem intestinal transport assays, single outliers of quadruplicate replicates were excluded from the calculation if a signal value’s distance to the mean exceeded 35% of the signal average. The IC50 values of individual experiments were calculated with a 3- or 4-parameter logistic regression using GraphPad Prism 9. The reported IC50 value represents the geometric mean of n = 5 experiments from 3 individual donors. Statistical comparison of urinary Phe excretion in Pah^enu2 mice treated with vehicle or JN-170 was conducted using 1-way analysis of variance (ANOVA) with Tukey’s post hoc comparison. […]

[2] = system: healthy volunteers; assay: Phase 1 safety and tolerability, multiple ascending dose (MAD) cohorts; details: for Any CTCAE Grade ≥ 3 / Any TEAE / Death / SAE / TEAE Anxiety / TEAE Contusion / TEAE Dehydration / TEAE Dizziness / TEAE Drug withdrawal headache / TEAE Dysmenorrhea / TEAE Flushing / TEAE Headache / TEAE Musculoskeletal pain / TEAE Myalgia / TEAE Nausea / TEAE Oropharyngeal pain / TEAE Rash / TEAE Skin injury / TEAE Somnolence / TEAE Swelling of eyelid / TEAE Thirst / TEAE Vascular access site pain / TEAEs leading to IP discontinuation: n = 6
Experimental: Eligible participants included males and females 18 to 55 years of age, medically healthy with no clinically notable medical history, a BMI of 18–40 kg/m^2 and total body weight > 50 kg (110 lbs), and who have been nonsmokers for at least 2 weeks prior to and throughout dosing.
In both SAD and MAD studies, safety and tolerability were assessed by AE monitoring, clinical laboratory tests (blood chemistries, hematology, coagulation, serology, and urinalysis), vital signs, 12-lead electrocardiograms, and physical examinations. Safety assessment and corresponding samples were collected on day-1 prior to dosing and days 1, 2, 3, and 8 for the SAD study or throughout the 14 days of dosing and day 21 for the MAD study.

N#Cc1ccc(-c2noc([C@]3(C(F)(F)F)CCN(C(=O)NCCC4(N)CC4)C3)n2)cc1 [JN-170]
plasma Phe, mean ± SD ([1]; 50 mg/kg, 3 hours): 984 ± 135 µM
plasma Phe lower than predose baseline ([1]; 50 mg/kg, 3 hours after dosing): 45%
plasma Phe decrease from baseline ([1]; 50 mg/kg, 12 hours): 34%
plasma Phe, mean ± SD ([1]; 50 mg/kg, 12 hours): 1,119 ± 124 μM
plasma Phe, mean ± SD ([1]; 250 mg/kg, 3 hours): 764 ± 43 µM
reduction in plasma Phe vs predose ([1]; 250 mg/kg, 3 hours): 54%
plasma Phe, mean ± SD ([1]; 250 mg/kg, 12 hours): 648 ± 106 µM
reduction in plasma Phe vs predose ([1]; 250 mg/kg, 12 hours): 61%
lowering of plasma Phe ([1]; plasma exposures with target coverage above the IC75): > 40%

NC(=O)N1CCC[C@@H](N(C(=O)NCc2ccc(OC(F)(F)F)cc2F)C2CC2)C1 [JNT-517]
Any CTCAE Grade ≥ 3 ([2]; MAD 25 mg BID): 0 Number (%)
Any TEAE ([2]; MAD 25 mg BID): 5 (83.3) Number (%)
Death ([2]; MAD 25 mg BID): 0 Number (%)
SAE ([2]; MAD 25 mg BID): 0 Number (%)
TEAE Anxiety ([2]; MAD 25 mg BID): 0 Number (%)
TEAE Contusion ([2]; MAD 25 mg BID): 0 Number (%)
TEAE Dehydration ([2]; MAD 25 mg BID): 0 Number (%)
TEAE Dizziness ([2]; MAD 25 mg BID): 0 Number (%)
TEAE Drug withdrawal headache ([2]; MAD 25 mg BID): 1 (16.7) Number (%)
TEAE Dysmenorrhea ([2]; MAD 25 mg BID): 0 Number (%)
TEAE Flushing ([2]; MAD 25 mg BID): 0 Number (%)
TEAE Headache ([2]; MAD 25 mg BID): 3 (50) Number (%)
TEAE Musculoskeletal pain ([2]; MAD 25 mg BID): 1 (16.7) Number (%)
TEAE Myalgia ([2]; MAD 25 mg BID): 0 Number (%)
TEAE Nausea ([2]; MAD 25 mg BID): 0 Number (%)
TEAE Oropharyngeal pain ([2]; MAD 25 mg BID): 1 (16.7) Number (%)
TEAE Rash ([2]; MAD 25 mg BID): 0 Number (%)
TEAE Skin injury ([2]; MAD 25 mg BID): 1 (16.7) Number (%)
TEAE Somnolence ([2]; MAD 25 mg BID): 1 (16.7) Number (%)
TEAE Swelling of eyelid ([2]; MAD 25 mg BID): 1 (16.7) Number (%)
TEAE Thirst ([2]; MAD 25 mg BID): 1 (16.7) Number (%)
TEAE Vascular access site pain ([2]; MAD 25 mg BID): 0 Number (%)
TEAEs leading to IP discontinuation ([2]; MAD 25 mg BID): 1 (16.7) Number (%)
Any CTCAE Grade ≥ 3 ([2]; MAD 75 mg BID): 0 Number (%)
Any TEAE ([2]; MAD 75 mg BID): 2 (33.3) Number (%)
Death ([2]; MAD 75 mg BID): 0 Number (%)
SAE ([2]; MAD 75 mg BID): 0 Number (%)
TEAE Anxiety ([2]; MAD 75 mg BID): 1 (16.7) Number (%)
TEAE Contusion ([2]; MAD 75 mg BID): 0 Number (%)
TEAE Dehydration ([2]; MAD 75 mg BID): 0 Number (%)
TEAE Dizziness ([2]; MAD 75 mg BID): 1 (16.7) Number (%)
TEAE Drug withdrawal headache ([2]; MAD 75 mg BID): 0 Number (%)
TEAE Dysmenorrhea ([2]; MAD 75 mg BID): 1 (16.7) Number (%)
TEAE Flushing ([2]; MAD 75 mg BID): 1 (16.7) Number (%)
TEAE Headache ([2]; MAD 75 mg BID): 1 (16.7) Number (%)
TEAE Musculoskeletal pain ([2]; MAD 75 mg BID): 0 Number (%)
TEAE Myalgia ([2]; MAD 75 mg BID): 0 Number (%)
TEAE Nausea ([2]; MAD 75 mg BID): 1 (16.7) Number (%)
TEAE Oropharyngeal pain ([2]; MAD 75 mg BID): 0 Number (%)
TEAE Rash ([2]; MAD 75 mg BID): 1 (16.7) Number (%)
TEAE Skin injury ([2]; MAD 75 mg BID): 0 Number (%)
TEAE Somnolence ([2]; MAD 75 mg BID): 0 Number (%)
TEAE Swelling of eyelid ([2]; MAD 75 mg BID): 0 Number (%)
TEAE Thirst ([2]; MAD 75 mg BID): 0 Number (%)
TEAE Vascular access site pain ([2]; MAD 75 mg BID): 1 (16.7) Number (%)
TEAEs leading to IP discontinuation ([2]; MAD 75 mg BID): 0 Number (%)
Any CTCAE Grade ≥ 3 ([2]; MAD 150 mg QD): 0 Number (%)
Any TEAE ([2]; MAD 150 mg QD): 4 (66.7) Number (%)
Death ([2]; MAD 150 mg QD): 0 Number (%)
SAE ([2]; MAD 150 mg QD): 0 Number (%)
TEAE Anxiety ([2]; MAD 150 mg QD): 0 Number (%)
TEAE Contusion ([2]; MAD 150 mg QD): 1 (16.7) Number (%)
TEAE Dehydration ([2]; MAD 150 mg QD): 1 (16.7) Number (%)
TEAE Dizziness ([2]; MAD 150 mg QD): 0 Number (%)
TEAE Drug withdrawal headache ([2]; MAD 150 mg QD): 0 Number (%)
TEAE Dysmenorrhea ([2]; MAD 150 mg QD): 0 Number (%)
TEAE Flushing ([2]; MAD 150 mg QD): 0 Number (%)
TEAE Headache ([2]; MAD 150 mg QD): 2 (33.3) Number (%)
TEAE Musculoskeletal pain ([2]; MAD 150 mg QD): 0 Number (%)
TEAE Myalgia ([2]; MAD 150 mg QD): 1 (16.7) Number (%)
TEAE Nausea ([2]; MAD 150 mg QD): 0 Number (%)
TEAE Oropharyngeal pain ([2]; MAD 150 mg QD): 0 Number (%)
TEAE Rash ([2]; MAD 150 mg QD): 0 Number (%)
TEAE Skin injury ([2]; MAD 150 mg QD): 0 Number (%)
TEAE Somnolence ([2]; MAD 150 mg QD): 0 Number (%)
TEAE Swelling of eyelid ([2]; MAD 150 mg QD): 0 Number (%)
TEAE Thirst ([2]; MAD 150 mg QD): 0 Number (%)
TEAE Vascular access site pain ([2]; MAD 150 mg QD): 0 Number (%)
TEAEs leading to IP discontinuation ([2]; MAD 150 mg QD): 0 Number (%)
incidence of AE ([2]; MAD cohorts, all JNT-517 doses (11 of 18)): 61.1%
